Type in all cases: cell-based
Test [1] deals with Pasteurella multocida PM 10775 (080130003051, BRD field isolate). As to the kind of experiment: MIC, broth-microdilution (CLSI VET01-A4), strain PM 10775. As to conditions: Pasteurella multocida strain PM 10775, broth-microdilution; unit assumed. In outline:
(§1)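 Broth microdilution per CLSI VET01-A4, using trays with a doubling dilution series of compound; results interpreted per CLSI VET01-S3. MIC taken as lowest concentration with no turbidity visible to the unaided eye.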
For orientation: In broth dilution the organism is exposed to a series of concentrations in liquid medium.

Test [2] concerns Pasteurella multocida PM 6267 (P 2225 (L386), reference strain, mouse infection strain). As to the kind of experiment: MIC, broth-microdilution (CLSI VET01-A4), strain PM 6267. The following applies: Pasteurella multocida strain PM 6267, broth-microdilution; unit assumed. The method in brief:
as §1

Test [3] concerns Mannheimia haemolytica MH 6374 (ATCC 33396, reference strain). The test is described as follows: MIC, broth-microdilution (CLSI VET01-A4), strain MH 6374. As to conditions: Mannheimia haemolytica strain MH 6374, broth-microdilution; unit assumed. In outline:
as §1

The test system of test [4] is Mannheimia haemolytica MH 12587 (1071, BRD field isolate, macrolide-resistance: erm+, E+). As to the kind of experiment: MIC, broth-microdilution (CLSI VET01-A4), strain MH 12587. The following applies: Mannheimia haemolytica strain MH 12587, broth-microdilution; unit assumed. The method in brief:
as §1

The subject of test [5] is Mannheimia haemolytica MH 6357 (M7/2, reference strain, cattle infection strain). As to the kind of experiment: MIC, broth-microdilution (CLSI VET01-A4), strain MH 6357. The following applies: Mannheimia haemolytica strain MH 6357, broth-microdilution; unit assumed. In outline: as §1
The subject of test [6] is Pasteurella multocida PM 6391 (ATCC 43137, reference strain). As to the kind of experiment: MIC, broth-microdilution (CLSI VET01-A4), strain PM 6391. The following applies: Pasteurella multocida strain PM 6391, broth-microdilution; unit assumed. In outline: as §1
Test [7] relates to Mannheimia haemolytica MH 13065 (XB0446-6003.9, BRD field isolate). The test is described as follows: MIC, broth-microdilution (CLSI VET01-A4), strain MH 13065. As to conditions: Mannheimia haemolytica strain MH 13065, broth-microdilution; unit assumed. The method in brief:
as §1

Test [8] concerns Pasteurella multocida PM 12080 (IV102277-0093, BRD field isolate). The test is described as follows: MIC, broth-microdilution (CLSI VET01-A4), strain PM 12080. The following applies: Pasteurella multocida strain PM 12080, broth-microdilution; unit assumed. The method in brief:
as §1

Test [9] concerns Mannheimia haemolytica MH 10720 (154, BRD field isolate). As to the kind of experiment: MIC, broth-microdilution (CLSI VET01-A4), strain MH 10720. The following applies: Mannheimia haemolytica strain MH 10720, broth-microdilution; unit assumed. The method in brief:
as §1

Test [10] relates to Mannheimia haemolytica MH 13093 (XB0472-6014.1, BRD field isolate). The test is described as follows: MIC, broth-microdilution (CLSI VET01-A4), strain MH 13093. The following applies: Mannheimia haemolytica strain MH 13093, broth-microdilution; unit assumed. The method in brief: as §1

Molecules are shown by their SMILES. ≈ marks a conversion by molar mass, not a printed value.

We go through 7 molecules from patent US11034650B2, “Compounds useful for treating a Mannheimia haemolytica or Histophilus somni infection” (Intervet Inc., priority 2016, dated 2021).

For `CSC(C)(C)[C@H](NC(=O)c1ccc(C#Cc2ccc(CNCC#N)nc2)cc1)C(=O)NO` [Compound 342], the MIC PM 10775 in [1] is 0.2 µg/mL (≈ 0.443 µM). The same molecule showed an MIC PM 6267 in test [2] of 1.6 µg/mL (≈ 3.54 µM). This molecule also returned an MIC MH 6374 in test [3] of 3.1 µg/mL (≈ 6.87 µM). The same molecule had an MIC MH 12587 in test [4] of 6.3 µg/mL (≈ 14 µM). The same molecule showed an MIC MH 6357 in test [5] of 1.6 µg/mL (≈ 3.54 µM). The molecule further gave an MIC PM 6391 in test [6] of 1.6 µg/mL (≈ 3.54 µM). The molecule also came in with an MIC MH 13065 in [7] of 3.1 µg/mL (≈ 6.87 µM). In test [8], this molecule had an MIC PM 12080 of 0.8 µg/mL (≈ 1.77 µM). This molecule registered an MIC MH 10720 in [9] of 0.4 µg/mL (≈ 0.886 µM). Further, in test [10], the MIC MH 13093 is 3.1 µg/mL (≈ 6.87 µM).

`CSC(C)(C)[C@H](NC(=O)c1ccc(C#Cc2ccc(CNCc3ccccn3)nc2)cc1)C(=O)NO` [Compound 343] yielded an MIC PM 10775 in test [1] of 0.4 µg/mL (≈ 0.794 µM). This molecule came in with an MIC PM 6267 in test [2] of 3.1 µg/mL (≈ 6.16 µM). In test [3], this molecule returned an MIC MH 6374 of 3.1 µg/mL (≈ 6.16 µM). Besides, the MIC MH 12587 in test [4] came out at 6.3 µg/mL (≈ 12.5 µM). This molecule yielded an MIC MH 6357 in test [5] of 3.1 µg/mL (≈ 6.16 µM). Further, in test [6], the MIC PM 6391 is 6.3 µg/mL (≈ 12.5 µM). The molecule also gave an MIC MH 13065 in [7] of 3.1 µg/mL (≈ 6.16 µM). The molecule also gave an MIC PM 12080 in test [8] of 1.6 µg/mL (≈ 3.18 µM). The MIC MH 10720 in test [9] amounted to 0.4 µg/mL (≈ 0.794 µM). The molecule further yielded an MIC MH 13093 in test [10] of 6.3 µg/mL (≈ 12.5 µM).

`CSC(C)(C)[C@H](NC(=O)c1ccc(C#Cc2ccc(CNCc3ccco3)nc2)cc1)C(=O)NO` [Compound 344] gave an MIC PM 10775 in [1] of at most 0.1 µg/mL. Further, the MIC PM 6267 in test [2] came to 0.8 µg/mL (≈ 1.62 µM). In test [3], this molecule returned an MIC MH 6374 of 0.8 µg/mL (≈ 1.62 µM). For the same molecule, the MIC MH 12587 in test [4] came to 1.6 µg/mL (≈ 3.25 µM). Further, the MIC MH 6357 in test [5] was determined as 0.4 µg/mL (≈ 0.812 µM). Also, in [6], the MIC PM 6391 was found to be 0.8 µg/mL (≈ 1.62 µM). The same molecule gave an MIC MH 13065 in [7] of 0.8 µg/mL (≈ 1.62 µM). For the same molecule, the MIC PM 12080 in test [8] turned out to be 0.4 µg/mL (≈ 0.812 µM). Moreover, in test [9], the MIC MH 10720 is at most 0.1 µg/mL. For the same molecule, the MIC MH 13093 in test [10] is 1.6 µg/mL (≈ 3.25 µM).

In test [1], `CSC(C)(C)[C@H](NC(=O)c1ccc(C#Cc2ccc(CNCC(F)(F)F)nc2)cc1)C(=O)NO` [Compound 345] yielded an MIC PM 10775 of at most 0.1 µg/mL. The molecule further registered an MIC PM 6267 in [2] of 0.8 µg/mL (≈ 1.62 µM). Moreover, the MIC MH 6374 in [3] amounted to 1.6 µg/mL (≈ 3.24 µM). The molecule also returned an MIC MH 12587 in [4] of 1.6 µg/mL (≈ 3.24 µM). The molecule further came in with an MIC MH 6357 in test [5] of 0.8 µg/mL (≈ 1.62 µM). For the same molecule, the MIC PM 6391 in test [6] was 0.8 µg/mL (≈ 1.62 µM). This molecule also had an MIC MH 13065 in test [7] of 0.8 µg/mL (≈ 1.62 µM). For the same molecule, in test [8], the MIC PM 12080 came to 0.4 µg/mL (≈ 0.809 µM). This molecule also registered an MIC MH 10720 in test [9] of at most 0.1 µg/mL. In [10], this molecule yielded an MIC MH 13093 of 1.6 µg/mL (≈ 3.24 µM).

In [1], `CSC(C)(C)[C@H](NC(=O)c1ccc(C#Cc2ccc(CNCc3ncccn3)nc2)cc1)C(=O)NO` [Compound 346] gave an MIC PM 10775 of 0.4 µg/mL (≈ 0.793 µM). In [2], this molecule gave an MIC PM 6267 of 6.3 µg/mL (≈ 12.5 µM). Moreover, the MIC MH 6374 in [3] is 6.3 µg/mL (≈ 12.5 µM). Moreover, in [4], the MIC MH 12587 was found to be 12.5 µg/mL (≈ 24.8 µM). This molecule had an MIC MH 6357 in test [5] of 6.3 µg/mL (≈ 12.5 µM). This molecule also gave an MIC PM 6391 in test [6] of 3.1 µg/mL (≈ 6.14 µM). In test [7], this molecule showed an MIC MH 13065 of 6.3 µg/mL (≈ 12.5 µM). Moreover, in test [8], the MIC PM 12080 turned out to be 1.6 µg/mL (≈ 3.17 µM). In [9], this molecule returned an MIC MH 10720 of 0.8 µg/mL (≈ 1.59 µM). The molecule further showed an MIC MH 13093 in test [10] of 12.5 µg/mL (≈ 24.8 µM).

Take `CSC(C)(C)[C@H](NC(=O)c1ccc(C#Cc2ccc(CNCc3ncc(C)o3)nc2)cc1)C(=O)NO` [Compound 347]: the MIC PM 10775 in test [1] is at most 0.1 µg/mL. In addition, in test [2], the MIC PM 6267 came out at 1.6 µg/mL (≈ 3.15 µM). In test [3], this molecule registered an MIC MH 6374 of 1.6 µg/mL (≈ 3.15 µM). Also, the MIC MH 12587 in test [4] is 3.1 µg/mL (≈ 6.11 µM). Besides, in [5], the MIC MH 6357 amounted to 0.8 µg/mL (≈ 1.58 µM). This molecule came in with an MIC PM 6391 in test [6] of 0.8 µg/mL (≈ 1.58 µM). Besides, the MIC MH 13065 in test [7] came to 1.6 µg/mL (≈ 3.15 µM). In [8], the MIC PM 12080 was determined as 0.8 µg/mL (≈ 1.58 µM). The same molecule came in with an MIC MH 10720 in test [9] of 0.2 µg/mL (≈ 0.394 µM). In test [10], the MIC MH 13093 turned out to be 1.6 µg/mL (≈ 3.15 µM).

`CC(C)([C@H](NC(=O)c1ccc(C#Cc2ccc(CNC3CC3)nc2)cc1)C(=O)NO)S(C)(=O)=O` [Compound 348] showed an MIC PM 10775 in test [1] of at most 0.1 µg/mL. Further, the MIC PM 6267 in test [2] is 0.8 µg/mL (≈ 1.65 µM). This molecule had an MIC MH 6374 in test [3] of 0.8 µg/mL (≈ 1.65 µM). This molecule also had an MIC MH 12587 in [4] of 3.1 µg/mL (≈ 6.4 µM). Besides, in test [5], the MIC MH 6357 came out at 0.8 µg/mL (≈ 1.65 µM). In [6], this molecule came in with an MIC PM 6391 of at most 0.1 µg/mL. The same molecule yielded an MIC MH 13065 in test [7] of 0.8 µg/mL (≈ 1.65 µM). The MIC PM 12080 in test [8] is at most 0.1 µg/mL. In addition, the MIC MH 10720 in test [9] is at most 0.1 µg/mL. The molecule further showed an MIC MH 13093 in test [10] of 0.8 µg/mL (≈ 1.65 µM).
